Test results: US5166398A, “4-oxy-substituted phenoxyalkyl carboxylic acid, ester, and alcohol derivatives as antihyper-cholesterolemic and antiatherosclerotic agents” (Warner-Lambert Co., priority 1991, dated 1992)

target: T1, acyl-CoA:cholesterol acyltransferase (ACAT) (Oryctolagus cuniculus, UniProt G1SFD9); assay: inhibition of cholesterol esterification by ACAT, rabbit intestinal microsomal fraction (cholesteryl oleate formation from endogenous cholesterol and exogenous 14C-oleoyl-CoA); type: biochemical; details: rabbit intestinal microsomes; in vitro; read-out: IC50, concentration of test compound required to inhibit cholesteryl oleate formation to 50% of control
T1 construct: rabbit intestinal microsomal fraction; from tissue; host or cells: rabbit intestine, microsomal fraction
T1 sequence (G1SFD9 1-524): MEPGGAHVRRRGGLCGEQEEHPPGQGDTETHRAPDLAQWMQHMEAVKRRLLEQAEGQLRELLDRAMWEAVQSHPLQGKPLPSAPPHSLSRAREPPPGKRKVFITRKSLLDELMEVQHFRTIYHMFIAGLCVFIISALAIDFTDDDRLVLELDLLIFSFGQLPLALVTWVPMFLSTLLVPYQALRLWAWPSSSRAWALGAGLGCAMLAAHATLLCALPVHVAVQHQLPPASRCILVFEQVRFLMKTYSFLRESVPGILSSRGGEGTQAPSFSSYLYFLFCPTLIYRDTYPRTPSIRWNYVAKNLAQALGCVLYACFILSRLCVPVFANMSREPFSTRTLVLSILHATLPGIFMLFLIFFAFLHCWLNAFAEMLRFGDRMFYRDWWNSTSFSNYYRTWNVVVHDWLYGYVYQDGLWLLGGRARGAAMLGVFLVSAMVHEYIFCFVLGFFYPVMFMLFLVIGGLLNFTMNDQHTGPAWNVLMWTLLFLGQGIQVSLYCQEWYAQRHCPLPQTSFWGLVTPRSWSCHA
Description: The compounds of the present invention were tested for their ability to inhibit the esterification of cholesterol by the enzyme acyl-CoA:cholesterol acyltransferase (ACAT). The data in the table below is expressed as IC50 values, i.e., the concentration of test compound required to inhibit cholesteryl oleate formation to 50% of control.
The in vitro test employed is more fully described in Field, F. J. and Salome, R. G., Biochemica et Biophysica Acta, Vol. 712, pages 557-570 (1982). The assay evaluates the ability of a test compound to inhibit the esterification of cholesterol using endogenous cholesterol of a rabbit intestinal microsomal fraction and exogenous ^14 C-oleoyl-CoA as reactants.

Compound	IC50 [µM]
COC(=O)C(C)(C)CCCOc1cc(C)c(OC(=O)Nc2c(C(C)C)cccc2C(C)C)cc1C [Example 15, 5-[4-[[[[2,6-Bis(1-methylethyl)phenyl]amino]carbonyl]oxy]-2,5-dimethylphenoxy]-2,2-dimethylpentanoic acid, methyl ester]	> 5

system: not listed separately; assay: elevation of HDL at 50 mg/kg relative to gemfibrozil 50 mg/kg (procedure of U.S. Pat. No. 4,413,011); type: in vivo; details: ratio of HDL elevation, test drug 50 mg/kg vs gemfibrozil 50 mg/kg; 1 = as effective as gemfibrozil
Description: Additionally, the elevation of HDL is reported in the table as a ratio of the elevation of HDL effected by a dose of 50 mg/kg of the test drug divided by the elevation of HDL effected by a 50 mg/kg dose of gemfibrozil which is used as a control in each experiment. [formula] Thus, a figure of 1 means that the test drug was as effective as gemfibrozil in elevating HDL. […] The test procedure is described in U.S. Pat. No. 4,413,011 which is herein incorporated by reference.

Compound	Δ HDL Test Compound / Δ HDL Gemfibrozil
CCCCOc1cc(C)c(OCCCC(C)(C)C(=O)O)cc1C [Example 5, 5-(4-Butoxy-2,5-dimethylphenoxy)-2,2-dimethylpentanoic acid]	0.9
COC(=O)C(C)(C)CCCOc1cc(C)c(OCc2ccccc2)c(C)c1C [Example 8, 2,2-Dimethyl-5-[2,3,5-trimethyl-4-(phenylmethoxy)phenoxy]pentanoic acid, methyl ester]	1.0
CCOc1cc(C)c(OCCCC(C)(C)C(=O)O)cc1C [Example 6, 5-(4-Ethoxy-2,5-dimethylphenoxy)-2,2-dimethylpentanoic acid]	1.4
Cc1cc(OCCCC(C)(C)C(=O)O)c(C)c(C)c1OCc1ccccc1 [Example 9, 2,2-Dimethyl-5-[2,3,5-trimethyl-4-(phenylmethoxy)-phenoxy]pentanoic acid]	0.9
CCOc1cc(C)c(OCCCC(C)(C)C(=O)OC)cc1C [Example 3, 5-(4-Ethoxy-2,5 dimethylphenoxy)-2,2 dimethylpentanoic acid, methyl ester]	1.2
COC(=O)C(C)(C)CCCOc1c(C)cc(OC(=O)C(C)(C)C)c(C)c1C [Example 7, 5-[4-(2,2-Dimethyl-1-oxopropoxy)-2,3,6-trimethylphenoxy]-2,2 dimethylpentanoic acid, methyl ester]	1.1
COc1cc(C)c(OCCCC(C)(C)C(=O)O)cc1C [Example 4, 5-(4-Methoxy-2,5-dimethylphenoxy)-2,2-dimethylpentanoic acid]	1.2
COC(=O)C(C)(C)CCCOc1cc(C)c(OCc2ccccc2)c(C)c1 [Example 11, 5-[3,5-Dimethyl-4-(phenylmethoxy)phenoxy]-2,2-dimethylpentanoic acid, methyl ester]	1.2
Cc1cc(OCCCC(C)(C)CO)c(C)c(C)c1OCc1ccccc1 [Example 10]	0.9
CCCCOc1cc(C)c(OCCCC(C)(C)C(=O)OC)cc1C [Example 2, 5-(4-Butoxy-2,5-dimethylphenoxy)-2,2-dimethylpentanoic acid, methyl ester]	0.85
Cc1cc(OCc2ccccc2)c(C)cc1OCCCC(C)(C)C(=O)O [Example 14, 5-[2,5-Dimethyl-4-(phenylmethoxy)phenoxy]-2,2-dimethylpentanoic acid]	1.0

system: coronary heart disease; assay: not given; details: human, in vivo; cited from earlier work

Compound	effect on HDL (in words)	effect on LDL (in words)
Cc1ccc(C)c(OCCCC(C)(C)C(=O)O)c1 [gemfibrozil]	elevates HDL	lowers LDL

same assay, conditions: patients with elevated cholesterol levels; five-year trial; cited from earlier work

Compound	reduction of the rate of heart attack and sudden cardiac death [%]
Cc1ccc(C)c(OCCCC(C)(C)C(=O)O)c1 [gemfibrozil]	34
